Assay results taken from article PMC7932537, “Quantitative profiling of protease specificity” (PLoS Computational Biology, 2021).

Assays:
[1] = test system: MMP-2; assay: Substrate phage display with NGS: relative probability (RP) of P3-P1' tetramer clusters; assay type: biochemical, human; conditions: MMP2;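 also: ratio of tetramer probability after protease selection to that in naive phage library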
[2] = biological target: T1, MMP-2 (Homo sapiens, UniProt P08253); assay: K(obs) of individual phage substrates (set of 1369); assay type: biochemical; conditions: MMP2
T1 sequence (P08253 110-660): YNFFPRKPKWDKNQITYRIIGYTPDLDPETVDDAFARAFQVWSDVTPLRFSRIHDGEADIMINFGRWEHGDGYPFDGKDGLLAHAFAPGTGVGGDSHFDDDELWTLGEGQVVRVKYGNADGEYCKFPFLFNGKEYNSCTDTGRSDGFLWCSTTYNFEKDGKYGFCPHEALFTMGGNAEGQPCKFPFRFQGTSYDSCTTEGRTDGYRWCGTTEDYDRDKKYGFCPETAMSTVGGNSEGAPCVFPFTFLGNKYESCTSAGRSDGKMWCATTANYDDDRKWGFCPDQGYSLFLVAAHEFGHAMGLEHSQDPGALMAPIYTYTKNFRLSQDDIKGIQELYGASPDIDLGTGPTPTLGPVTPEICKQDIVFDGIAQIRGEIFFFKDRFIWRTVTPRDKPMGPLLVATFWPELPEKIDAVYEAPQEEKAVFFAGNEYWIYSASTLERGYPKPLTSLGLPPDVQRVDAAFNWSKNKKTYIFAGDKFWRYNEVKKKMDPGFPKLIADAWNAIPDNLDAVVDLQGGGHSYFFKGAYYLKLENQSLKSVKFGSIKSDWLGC

[3] = biological target: MMP-9 (Homo sapiens, UniProt P14780); assay: as above; assay type: biochemical; conditions: MMP9
Sequence of MMP-9 (P14780 94-707): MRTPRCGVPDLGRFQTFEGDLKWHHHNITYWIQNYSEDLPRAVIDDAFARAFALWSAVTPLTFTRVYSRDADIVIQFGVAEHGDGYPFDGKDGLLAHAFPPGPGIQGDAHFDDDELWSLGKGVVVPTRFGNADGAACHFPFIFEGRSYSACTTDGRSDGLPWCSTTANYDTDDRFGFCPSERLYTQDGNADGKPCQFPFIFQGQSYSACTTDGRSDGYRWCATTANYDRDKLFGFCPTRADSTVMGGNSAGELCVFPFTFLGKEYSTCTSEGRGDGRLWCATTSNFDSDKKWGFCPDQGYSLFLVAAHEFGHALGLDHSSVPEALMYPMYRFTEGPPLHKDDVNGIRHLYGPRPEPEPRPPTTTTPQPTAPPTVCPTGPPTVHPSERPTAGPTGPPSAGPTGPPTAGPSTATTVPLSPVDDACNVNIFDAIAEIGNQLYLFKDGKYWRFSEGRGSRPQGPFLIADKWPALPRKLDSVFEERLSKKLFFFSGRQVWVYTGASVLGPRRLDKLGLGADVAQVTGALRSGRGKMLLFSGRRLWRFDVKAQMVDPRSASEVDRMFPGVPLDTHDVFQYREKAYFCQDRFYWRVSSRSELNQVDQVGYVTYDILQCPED

[4] = RP of the P3-P1' tetramer contained in the substrate (substrate phage display with NGS)
[5] = individual phage substrates, set of 1369 peptides, cleavage position marked by hyphen in sequence
[6] = individual phage substrates, set of 1369 peptides, hyphen in sequence marks cleavage position
[7] = RP of the P3-P1' tetramer contained in the substrate
[8] = individual phage substrate of the set of 1369 peptides, cleavage position marked by '-'
[9] = individual phage substrate of the set of 1369 peptides, dash in the sequence marks the cleavage position

| Substance | Kobs [2, 5] [M⁻¹ s⁻¹] | Kobs [3, 6] [M⁻¹ s⁻¹] | Kobs [2, 8] [M⁻¹ s⁻¹] | Kobs [3, 9] [M⁻¹ s⁻¹] | relative probability (RP) [1, 4] | relative probability (RP) [1, 7] |
| --- | --- | --- | --- | --- | --- | --- |
| VLPRS-WTASG | 8321.48 | 5889.62 |  |  | 32.796 |  |
| DRPNY-LTASG |  |  | 4082.43 | 1196.62 |  | 17.2533 |
| MGMWH-LTASG | 0 | 142.481 |  |  | 0.2013 |  |
| WKVSS-LTASG | 10866.7 | 2218.08 |  |  | 29.0891 |  |
| PTFAH-LTASG |  |  | 9740.44 | 585.336 |  | 19.6504 |
| ELSLA-LTASG |  |  | 1925.41 | 1112.44 |  | 6.019 |
| SGVRY-LYGTA | 3637.04 | 8941.32 |  |  | 18.3724 |  |
| SGPSS-LFATA |  |  | 12792.1 | 12792.1 |  | 35.4913 |
| GRVAY-LSTAS |  |  | 8941.32 | 56.119 |  | 26.5348 |
| RDVLA-LTASG | 3438.54 | 3165.09 |  |  | 13.5229 |  |
| RILGY-LTASG | 12792.1 | 292.668 |  |  | 24.8925 |  |
| GNPYK-LTASG |  |  | 1196.62 | 8941.32 |  | 15.5683 |
| GKPAS-LDTAS | 1239.69 | 0 |  |  | 36.4285 |  |
| SGVYW-LRSTA |  |  | 9740.44 | 12792.1 |  | 16.4375 |
| RKPAP-WTASG |  |  | 8321.48 | 3253.29 |  | 31.7353 |
| GVLRM-LSTAS |  |  | 0 | 951.362 |  | 9.0498 |
| GNPLP-QMTAS | 2157.02 | 1870.4 |  |  | 24.381 |  |
| TQVFG-LTASG | 2687.73 | 5461.43 |  |  | 12.5523 |  |
| GEVRG-LRTAS | 12792.1 | 7386.83 |  |  | 29.092 |  |
| RVPYG-LTASG |  |  | 6131.32 | 7015.91 |  | 32.9966 |
| NRVEM-LTASG |  |  | 261.974 | 0 |  | 2.124 |

| Substance | Kobs [2, 5] [M⁻¹ s⁻¹] | Kobs [3, 6] [M⁻¹ s⁻¹] | Kobs [2, 8] [M⁻¹ s⁻¹] | Kobs [3, 9] [M⁻¹ s⁻¹] | relative probability (RP) [1, 4] | relative probability (RP) [1, 7] |
| --- | --- | --- | --- | --- | --- | --- |
| FSLRQ-MTASG | 990.764 | 690.17 |  |  | 8.677 |  |
| QVSWA-WTASG | 0 | 231.616 |  |  | 0.05632 |  |
| LAWAH-ITASG |  |  | 1030.73 | 0 |  | 0.05752 |
| ATPES-LTASG |  |  | 8941.32 | 6131.32 |  | 26.0767 |
| GWAYN-MRTAS | 292.668 | 2280.5 |  |  | 10.8408 |  |
| GSPYG-LLTAS |  |  | 8941.32 | 12792.1 |  | 32.9966 |
| RTGLY-LTASG |  |  | 1283.43 | 0 |  | 0.07615 |
| PYPVP-FTASG |  |  | 12792.1 | 12792.1 |  | 31.1155 |
| GLPDF-LTASG | 0 | 0 |  |  | 1.02 |  |
| SGLWY-LSATA | 1196.62 | 484.315 |  |  | 0.6796 |  |
| YDISA-LTASG |  |  | 12792.1 | 113.394 |  | 31.8319 |
| AGVRY-LTASG | 5889.62 | 7815.03 |  |  | 18.3724 |  |
| GGSGA-LRVRG |  |  | 1154.21 | 0 |  | 13.4712 |
| RRPTN-LTASG |  |  | 12792.1 | 12792.1 |  | 31.0288 |
| SGGSG-LWATP |  |  | 1870.4 | 1071.29 |  | 1.9698 |
| GTLAA-MSTAS | 4205.91 | 0 |  |  | 30.6825 |  |
| HSPWF-LTASG | 3165.09 | 9740.44 |  |  | 12.628 |  |
| GKMFH-LITAS | 292.668 | 142.481 |  |  | 0.052 |  |
| GSFRG-LRTAS | 874.197 | 451.441 |  |  | 7.475 |  |
| TKWLA-LTASG | 3079.62 | 3637.04 |  |  | 1.218 |  |
| LLYMG-LTASG | 874.197 | 799.117 |  |  | 0.09823 |  |

Second part, led by results:

| Kobs [2, 5] [M⁻¹ s⁻¹] | Kobs [3, 6] [M⁻¹ s⁻¹] | Kobs [2, 8] [M⁻¹ s⁻¹] | Kobs [3, 9] [M⁻¹ s⁻¹] | Substance | relative probability (RP) [1, 4] | relative probability (RP) [1, 7] |
| --- | --- | --- | --- | --- | --- | --- |
|  |  | 3850.82 | 12792.1 | SGVRH-VRATA |  | 9.5401 |
| 12792.1 | 3253.29 |  |  | NRPAS-WTASG | 32.4643 |  |
| 1870.4 | 4205.91 |  |  | SGPMR-LVTTA | 20.4124 |  |
| 1112.44 | 3741.87 |  |  | QSWYG-MTASG | 0.05309 |  |
| 1154.21 | 2687.73 |  |  | TVSYA-LTASG | 4.7967 |  |
| 8321.48 | 261.974 |  |  | AVLSN-LTASG | 32.5007 |  |
|  |  | 5461.43 | 5461.43 | NVPVW-MTASG |  | 25.8126 |
|  |  | 2687.73 | 12792.1 | SGPKW-IIQTA |  | 22.5059 |
|  |  | 7815.03 | 4335.13 | ARVRH-LTASG |  | 25.4239 |
| 0 | 0 |  |  | GGSGS-LVNLL | 7.225 |  |
|  |  | 1283.43 | 10866.7 | SGPMF-LWTTA |  | 18.5721 |
|  |  | 12792.1 | 6396.07 | VFTRN-LTASG |  | 12.3403 |
| 2545.25 | 3964.21 |  |  | GLPLN-WRTAS | 28.8158 |  |
|  |  | 418.952 | 0 | SVGLY-LTASG |  | 0.07615 |
| 3637.04 | 5667.28 |  |  | KGPEM-LTASG | 16.0599 |  |
|  |  | 4922.1 | 12792.1 | GDPYS-LRTAS |  | 30.7259 |
| 12792.1 | 12792.1 |  |  | PIALH-WTASG | 5.12 |  |
| 0 | 1196.62 |  |  | RVTWA-LTASG | 0.4366 |  |
| 8941.32 | 8941.32 |  |  | TVPRA-WTASG | 34.1791 |  |
| 0 | 0 |  |  | SGFLH-WRSTA | 0.05793 |  |
|  |  | 3344.37 | 2280.5 | SGPVH-LLNTA |  | 32.2352 |
|  |  | 5461.43 | 0 | TATNW-LTASG |  | 15.348 |
| 10866.7 | 171.876 |  |  | FDISH-LTASG | 30.7015 |  |
| 0 | 0 |  |  | GSGFS-LRTWT | 0.09752 |  |
| 0 | 762.325 |  |  | SGARS-MRLTA | 12.2991 |  |
| 2038.8 | 7815.03 |  |  | SGPFY-LRNTA | 17.7778 |  |
| 9740.44 | 10866.7 |  |  | SGPSW-LYTTA | 35.705 |  |
| 12792.1 | 7386.83 |  |  | GNVRN-LITAS | 29.2567 |  |
